# Results taken from the supplement of paper PMC4954754.
# ± gives the uncertainty stated by the source.
# What was measured:
# Details in all cases: 18 h
# HEK293T-Rex ERSE-FLuc [1] = assay: maximal ERSE-FLuc activation from dose-response fit, relative to thapsigargin (% of thapsigargin); higher = stronger activation
# Procedure: (§1)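 Dose-response of hit compounds in HEK293T-Rex cells stably expressing ERSE-FLuc or XBP1-RLuc reporters, 18 hr treatment, 1536-well; luminescence normalised to 500 nM thapsigargin (100%) and DMSO (0%), fitted to give EC50 (M) and maximal activation; '>' marks EC50 above the top tested dose (~17 µM).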
# HEK293T-Rex ERSE-FLuc [2] = assay: EC50 for ERSE-FLuc reporter activation
# Procedure: as §1
# HEK293T-Rex XBP1-RLuc [3] = assay: maximal XBP1-RLuc activation from dose-response fit, relative to thapsigargin (% of thapsigargin); higher = stronger activation
# Procedure: as §1
# HEK293T-Rex XBP1-RLuc [4] = assay: EC50 for XBP1-RLuc reporter activation
# Procedure: as §1
SMILES,maximal ERSE-FLuc activation (HEK293T-Rex ERSE-FLuc [1]),EC50 for ERSE-FLuc reporter activation (HEK293T-Rex ERSE-FLuc [2]) [µM],maximal XBP1-RLuc activation (HEK293T-Rex XBP1-RLuc [3]),EC50 for XBP1-RLuc reporter activation (HEK293T-Rex XBP1-RLuc [4]) [µM]
O=C(/C=C/c1ccccc1)Nc1ccc(Br)cn1,26.2 ± 3.8,> 13.7,4.36 ± 3.2,> 13.7
Cc1cc(C)nc(/N=C(\N)Nc2ccc(OCc3ccccc3)cc2)n1,46.9 ± 15,> 14.6,94.2 ± 4.2,0.788
C(=C\c1ccccc1)/C=N/Nc1nc2ccccc2[nH]1,25.5 ± 3.7,> 18,22.2 ± 2,> 18
Cc1cccc2c1[nH]c1nc(N/N=C\c3c[nH]c4ccccc34)nnc12,41.7 ± 12,> 16.9,32.4 ± 5.6,> 16.9
COc1cc2ccccc2cc1C(=O)N/N=C/c1cccs1,21.5 ± 3.6,> 16.9,5.33 ± 6.5,> 16.9
Cc1ccn2cc(-c3ccc(O)c(O)c3)nc2c1,25.3 ± 5.2,> 20.3,70.3 ± 12,11.9
COc1ccccc1-c1cnnc(N/N=C/c2c[nH]c3ccccc23)n1,49.9 ± 8.2,> 16.9,29.8 ± 2.1,> 16.9
O=C1/C(=C/c2ccc(O)c(O)c2)SC(=S)N1c1ccc(O)cc1,77.1 ± 17,12.4,35.5 ± 3.5,> 16.9
Cc1ccc(O)c(NC(=S)NC(=O)/C=C/c2ccco2)c1,30.2 ± 7.3,> 16.9,5.76 ± 1.5,> 16.9
Nc1ccccc1NC(=O)c1ccc(C(F)(F)F)cc1,73.1 ± 8.1,9.12,37.7 ± 3.5,> 19.9
Cc1ccccc1-c1cc(=O)c2cc(Cl)ccc2o1,24.3 ± 3.6,> 17,21.7 ± 1.1,> 17
CN(C)c1ccc(/C=N/NC(=O)c2cccc(Br)c2)cc1,19.2 ± 4.8,> 16.9,2.34 ± 2,> 16.9
N#C/C(=C/c1ccc(O)c(O)c1)c1nc2ccccc2s1,38.1 ± 2.2,> 16.9,27.5 ± 2.7,> 16.9
CN(C)c1ccc(/C=C(/C#N)C(=O)Nc2ccc(O)cc2)cc1,29.9 ± 4.7,> 16.9,31 ± 2.4,> 16.9
C=CCn1c(N2CCC(C(=O)NCCc3ccc(O)c(O)c3)CC2)nc2ccccc21,150 ± 16,8.27,97.8 ± 31,7.94
O=C1N/C(=C/c2ccc(O)cc2)C(=O)N1c1ccccc1,110 ± 11,3.42,76 ± 3.7,4.36
N#Cc1ccc(-c2cccs2)nc1SCc1ccccn1,28.6 ± 1.8,> 16.4,5.22 ± 2.9,> 16.4
COc1c(O)cc2oc(-c3ccc(O)c(O)c3)cc(=O)c2c1O,129 ± 3.5,3.69,57.9 ± 2.8,8.02
CC(C)c1ccc(/C=N\NC(=O)c2ccccc2)cc1,19.3 ± 9.1,> 16.9,17.7 ± 5.7,> 16.9
COc1ccc(N(C(=O)c2ccccc2)S(=O)(=O)c2cc(OC)ccc2OC)cc1,125 ± 14,6.69,185 ± 8.3,5.82
Nc1nc(Nc2ccc(Cl)c(Cl)c2)nc2ccccc12,138 ± 11,7.93,61.9 ± 4,12.3
COc1ccc(/C=C(\C#N)c2nc(-c3ccco3)cs2)cc1O,32.9 ± 2.9,> 16.7,14.5 ± 4.2,> 16.7
CC(C)NC(=O)c1cc(-c2ccc(O)cc2)on1,1.46 ± 1,> 16.9,0.798 ± 0.58,> 16.9

SMILES,maximal ERSE-FLuc activation (HEK293T-Rex ERSE-FLuc [1]),EC50 for ERSE-FLuc reporter activation (HEK293T-Rex ERSE-FLuc [2]) [µM],maximal XBP1-RLuc activation (HEK293T-Rex XBP1-RLuc [3]),EC50 for XBP1-RLuc reporter activation (HEK293T-Rex XBP1-RLuc [4]) [µM]
COC(=O)c1ccc2c(COC(C)=O)c(OC(C)=O)ccc2c1COC(C)=O,70.9 ± 16,14.7,19.2 ± 4.8,> 16.9
Nc1ccc2nc(/C=C/c3ccco3)[nH]c2c1,27.4 ± 2.5,> 16.9,32.3 ± 1.3,> 16.9
CCCNC(=O)c1cc(-c2ccc(F)cc2)on1,65.8 ± 6.4,12,11.7 ± 3.2,> 16.9
CN(C)c1ccc(-c2nc3ccc(N)cc3[nH]2)cc1,42.7 ± 3.8,> 15.6,32 ± 6,> 15.6
O=C(N/N=C/c1ccc(Cl)cc1Cl)c1ccc(O)c(O)c1,32.6 ± 8,> 16.9,47 ± 2.7,> 16.9
Cc1nn(-c2ccc(F)cc2)c2ncc(C(=O)NCc3ccco3)c(Cl)c12,63.1 ± 4.8,15.3,151 ± 6.8,12.6
Cc1ccc2nc(/C(C#N)=C\c3cc(Cl)cc4c3OCOC4)[nH]c2c1,20.1 ± 3.4,> 16,3.21 ± 1.4,> 16
CN(C)c1ccc(C2C(C#N)=C(N)Oc3c2sc2ccccc32)cc1[N+](=O)[O-] (stereo not drawn),15.8 ± 4.9,> 17.2,4.37 ± 1,> 17.2
Oc1ccc(-c2cn3ccccc3n2)cc1O,51.7 ± 5.5,18.4,38.7 ± 3.2,> 22.5
O=C1NC(=Nc2ccccc2)S/C1=C/c1ccc(O)c(O)c1,83.8 ± 12,6.2,38.5 ± 6.1,> 15.4
O=C1/C(=C/c2ccc(O)c(O)c2)Oc2cc(O)ccc21,46.2 ± 4.5,> 16.9,24.1 ± 2.3,> 16.9
CCOc1cccc(C(=O)Nc2ccc(Br)cn2)c1,23.3 ± 2.1,> 15.1,4.18 ± 0.09,> 15.1
O=C(N/N=C\c1ccccc1[N+](=O)[O-])c1[nH]nc2c1CCc1ccccc1-2,23 ± 4.3,> 16.9,5.31 ± 2.3,> 16.9
O=C(NC1CCCC1)c1cc(-c2cccs2)on1,57.6 ± 6.2,13.4,11.9 ± 3.2,> 16.9
CCOc1cc(/C=C2/NC(=O)N(c3cccc(Cl)c3)C2=O)ccc1O,47.5 ± 4.4,> 16.9,61.4 ± 9.7,11.9
CCOc1ccc(NC(=O)c2cccc(F)c2)c([N+](=O)[O-])c1,26.4 ± 1.6,> 14.3,2.67 ± 1.8,> 14.3
N#Cc1c(NC(=O)/C=C/c2ccco2)sc2c1CCCC2,22.8 ± 6.6,> 17,5.59 ± 3,> 17
CC(=O)c1cccc(Nc2nc(-c3ccc(O)c(O)c3)cs2)c1,87.3 ± 28,9.07,62.6 ± 15,13.5
Cc1ccc(O)c(-c2cc(-c3ccc(F)cc3)n[nH]2)c1,71.4 ± 16,10.5,17.2 ± 4,> 19
Oc1ccc(-c2csc(-c3ccccc3)n2)cc1O,65.2 ± 8.8,5.39,65.9 ± 7.2,11.3
OCCNc1nc(Nc2ccc(Cl)cc2)nc2ccccc12,155 ± 12,6.19,87.4 ± 1.1,9.68
Cn1c(-c2cccc(Cl)c2)cnc1NC(=O)c1ccccc1,23.6 ± 2.5,> 16.9,8.33 ± 5.9,> 16.9
O=[N+]([O-])c1ccc(/C=C/c2ccc(O)cc2)cc1,25.8 ± 4.6,> 15.3,53.3 ± 4.7,12.4

SMILES,maximal ERSE-FLuc activation (HEK293T-Rex ERSE-FLuc [1]),EC50 for ERSE-FLuc reporter activation (HEK293T-Rex ERSE-FLuc [2]) [µM],maximal XBP1-RLuc activation (HEK293T-Rex XBP1-RLuc [3]),EC50 for XBP1-RLuc reporter activation (HEK293T-Rex XBP1-RLuc [4]) [µM]
O=C(N/N=C/c1ccc(Cl)cc1)c1n[nH]c2c1CCCC2,21.7 ± 1.7,> 16.9,6.88 ± 3.1,> 16.9
COc1cccc(/C=N/NC(=O)c2ccc(NC(=O)c3ccc(C)cc3)cc2)c1O,6.5 ± 1.7,> 16.9,1.01 ± 1.2,> 16.9
COc1cccc(/C=N/NC(=O)c2n[nH]c3c2CCCC3)c1,29.6 ± 6.7,> 16.9,3.95 ± 0.69,> 16.9
Cc1ccc(O)c(N/C=C/C(=O)c2cccs2)c1,225 ± 15,5.29,56.5 ± 2.8,10
Oc1cccc(Nc2nc(-c3ccc(O)c(O)c3)cs2)c1,83.3 ± 11,12.5,51.6 ± 3.2,16.5
CN1C(=O)/C(=C\c2ccc(O)c(O)c2)SC1=S,28 ± 15,> 16.9,40.5 ± 3.6,> 16.9
Cc1ccc(O)c(NC(=O)c2cc(-c3cccnc3)on2)c1,94.4 ± 10,10.8,27.9 ± 4.9,> 16.9
N#Cc1c(NC(=O)c2cnccn2)sc2c1CCCC2,18.9 ± 4.8,> 17.9,4.67 ± 1.1,> 17.9
COc1ccc(/C=C/c2ccc3cccc(OC(C)=O)c3n2)cc1OC(C)=O,25.7 ± 5.6,> 16.9,15 ± 2.1,> 16.9
COc1ccc(/C=N/NC(=O)c2cccc(F)c2)cc1Br,31 ± 5.5,> 16.9,1.14 ± 6.2,> 16.9
NN1C(=O)/C(=C/c2ccc(O)c(O)c2)SC1=S,53.7 ± 2.2,11.7,33.2 ± 4.3,> 16.9
O=C(/C=C/c1ccco1)Nc1ccccn1,18.7 ± 4.8,> 16.9,1.83 ± 1.4,> 16.9
N/C(=N\N=C\c1ccc(O)c(O)c1)c1nonc1N,96.9 ± 3.7,5.38,41.6 ± 6.1,> 16.9
Nc1ccccc1NC(=O)c1ccc(C(=O)Nc2ccccc2N)cc1,65.8 ± 3.4,7.17,16.1 ± 6.4,> 9.59
O=C(c1ccccc1)c1c(O)ccc2c(C(=O)c3ccccc3)c(O)ccc12,32.5 ± 3.7,> 12.5,34.9 ± 1.1,> 12.5
Nc1c(C(=O)Nc2ccccc2)sc2nc3c(cc12)CCCCC3,29.8 ± 4.8,> 16.5,15.7 ± 1.2,> 16.5
CC(=O)N1CCc2c([nH]c3ccccc23)C12CCN(CCCOc1ccccc1)CC2,151 ± 7.6,2.94,176 ± 21,2.11
O=C(NCCCn1ccnc1)c1cc(-c2cccs2)on1,89.1 ± 3.8,9.58,12.1 ± 0.83,> 16.9
Cc1ccc(-c2csc(Nc3ccc(O)cc3)n2)cc1,40.9 ± 7.5,> 16.9,127 ± 1.4,8.04
Cc1ccc(C(=O)Nc2ccccc2N)cc1,137 ± 15,4.27,42.2 ± 2.2,> 14.7
COc1cccc(-c2cc(C(=O)Nc3cc(C)ccc3O)no2)c1,46.2 ± 7.9,> 16.9,19.1 ± 3.5,> 16.9
